Test results taken from patent publication US5741811A, “Polythiophene anti-tumor agents” (Purdue Research Foundation, priority 1996, dated 1998).

How the values were obtained:
Assay in all cases: NCI human tumor cell line panel growth inhibition
Assay type in all cases: cell-based
[1] = system: LXPL-529 lung cancer cells; conditions: for GI50: Homo sapiens, read-out: Log10 GI50 (converted)
[2] = system: RXF-631 renal cancer cells; conditions: Homo sapiens, read-out: Log10 GI50 (converted)
UACC-257 melanoma cells = conditions: for GI50: Homo sapiens, read-out: Log10 GI50 (converted)
[3] = system: IGROV-1 ovarian cancer cells; conditions: for GI50: Homo sapiens, read-out: Log10 GI50 (converted)
[4] = system: CAKI-1 renal cancer cells; conditions: CAKI-1, renal cancer; for GI50: Homo sapiens, read-out: Log10 GI50 (converted)
XP-498 CNS cancer cells = conditions: read-out: Log10 GI50 (converted)
Description: (§1) The first screen measures the cytotoxicity against a panel of sixty different human tumor cell lines. This assay provides data regarding the general cytotoxicity of an individual compound.
(§2) The length of a bar is indicative of differential cytotoxicity against a specific type of tumor cells or tumor panels.
(§3) The antitumor cytotoxicity of the thiophene compounds tested in the first two in vitro assays was measured by a microculture assay using either 3-(4,5-dimethylthiazol-2-yl)-2,5-diphenyltetrazolium bromide (MTT) or sulforhodamine B (SRB). [M. R. Boyd in "Principles and Practices of Oncology," V. T. DeVita, Jr., S. Hellman and S. A. Rosenberg (Eds.), Vol. 3, PPO Updates, Number 10, 1989.] This assay has an advantage over in vivo assay in that results are obtained within a week as opposed to several months. The assay was carried out in 96-well microtiter plates. The MTT assay is based on the production of a dark blue formazan product by dehydrogenase in the mitochondria of live tumor cells after exposure to drug for 6 days [M. C. Alley, D. A. Scudiero, A. Monks, M. L. Hursey, M. J. Czerwinski, D. L. Fine, B. J. Abbott, J. G. Mayo, R. H. Shoemaker and M. R. Boyd, Cancer Res., 48, 589, 1988.] Thus, only live cells are stained and can be measured at 570 nm. The SRB assay is based on the binding of the anionic group to the basic amino acid residues of cellular proteins after exposure of tumor cells to drug for 2 days [P. Skehan, R. Storeng, D. Scudiero, A. Monks, J. McMahon, D. Vistica, J. T. Warren, H. Bohesch, S. Kenney and M. R. Boyd, J. Nat. Cancer Inst., 82, 1107, 1990.] Thus, the total protein (viability) can be measured at 564 nm.

TK-10 renal cancer cells = conditions: for GI50: Homo sapiens, read-out: Log10 GI50 (converted)
[5] = system: NCI-H226 lung cancer cells; conditions: for GI50: Homo sapiens, read-out: Log10 GI50 (converted)
[6] = system: OVCAR-4 ovarian cancer cells
Source text: (§4) The cytotoxic activity of the present polythiophene compounds have been measured utilizing three different assays or screens. The first screen measures the cytotoxicity against a panel of sixty different human tumor cell lines. This assay provides data regarding the general cytotoxicity of an individual compound. In particular this type of assay is useful in identifying compounds which have enhanced cytotoxic activity against slow growing tumors as compared to faster growing tumor cells such as leukemia tumor cell lines. The identification of such compounds is critical since previously identified antitumor agents have low cytotoxic activity against slower growing tumors. […] The specificity of a cytotoxic compound for tumor cell lines relative to normal cells is an important characteristic of an effective antitumor agent.
as §2, §3

SK-MEL-28 melanoma cells = conditions: read-out: Log10 GI50 (converted)
Source text: as §4, §2, §3

[7] = system: OVCAR-5 ovarian cancer cells
MALME-3M melanoma cells = conditions: read-out: Log10 GI50 (converted)
SF-295 CNS cancer cells = conditions: read-out: Log10 GI50 (converted)
SF-268 CNS cancer cells = conditions: read-out: Log10 GI50 (converted)
786-0 renal cancer cells = conditions: read-out: Log10 GI50 (converted)
A-498 renal cancer cells = system: A-498 renal cancer cells
UO-31 renal cancer cells = conditions: read-out: Log10 GI50 (converted)
[8] = system: COLO-205 colon cancer cells; conditions: COLO-205, colon cancer
[9] = system: SK-OV-3 ovarian cancer cells
[10] = system: NCI-H522 lung cancer cells; conditions: read-out: Log10 GI50 (converted)
[11] = system: HCT-116 colon cancer cells
UACC-62 melanoma cells = system: UACC-62 melanoma cells
DLD-1 colon cancer cells = system: DLD-1 colon cancer cells
[12] = system: HCC-2998 colon cancer cells
[13] = system: OVCAR-3 ovarian cancer cells; conditions: OVCAR-3, ovarian cancer
ACHN renal cancer cells = conditions: read-out: Log10 GI50 (converted)
[14] = system: HCT-15 colon cancer cells
[15] = system: OVCAR-8 ovarian cancer cells
Description: as §1, §2, §3

[16] = system: SW-620 colon cancer cells
Description: as §1, §2, §3

[17] = system: NCI-H322M lung cancer cells
[18] = system: KM20L2 colon cancer cells
EKVX lung cancer cells = conditions: read-out: Log10 GI50 (converted)
SK-MEL-2 melanoma cells = conditions: read-out: Log10 GI50 (converted)
M-14 melanoma cells = conditions: M14, read-out: Log10 GI50 (converted)
HT29 colon cancer cells = system: HT29 colon cancer cells
[19] = system: NCI-H23 lung cancer cells; conditions: read-out: Log10 GI50 (converted)
SNB-75 CNS cancer cells = conditions: Homo sapiens, read-out: Log10 GI50 (converted)
SN12C renal cancer cells = conditions: read-out: Log10 GI50 (converted)
[20] = system: RXF-393 renal cancer cells
[21] = system: A549/ATCC lung cancer cells
[22] = system: NCI-H460 lung cancer cells
HOP-92 lung cancer cells = system: HOP-92 lung cancer cells
Source text: as §4, §2, §3

KM12 colon cancer cells = system: KM12 colon cancer cells
Source text: as §4, §2, §3

SNB-19 CNS cancer cells = system: SNB-19 CNS cancer cells
HOP-18 lung cancer cells = system: HOP-18 lung cancer cells
HOP-62 lung cancer cells = system: HOP-62 lung cancer cells
[23] = Homo sapiens, read-out: Log10 GI50 (converted)

OCc1ccc(-c2ccc(-c3ccc(-c4cccs4)s3)s2)s1
GI50 [1]: 1.05 µM | GI50 [2]: 11 µM | GI50 (UACC-257 melanoma cells): 10.7 µM | GI50 [3]: 1.12 µM | GI50 [4]: 0.617 µM | GI50 (XP-498 CNS cancer cells): 11 µM | GI50 (TK-10 renal cancer cells): 0.891 µM | GI50 [5]: 5.89 µM

O=Cc1ccc(-c2ccc(-c3cccs3)s2)s1 [drawing 32]
GI50 [1]: < 0.01 µM | GI50 [6, 23]: 30.9 µM | GI50 (SK-MEL-28 melanoma cells): 89.1 µM | GI50 [7, 23]: 0.138 µM | GI50 (MALME-3M melanoma cells): 79.4 µM | GI50 (SF-295 CNS cancer cells): 69.2 µM | GI50 (SF-268 CNS cancer cells): 87.1 µM | GI50 (786-0 renal cancer cells): 43.7 µM | GI50 (UACC-257 melanoma cells): 0.0468 µM | GI50 [3]: 0.0603 µM | GI50 (A-498 renal cancer cells; Homo sapiens, A498, read-out: Log10 GI50 (converted)): 0.0437 µM | GI50 (UO-31 renal cancer cells): 41.7 µM | GI50 [8, 23]: 5.37 µM | GI50 [9, 23]: 87.1 µM | GI50 [10]: 32.4 µM | GI50 [4]: 0.0138 µM | GI50 [11, 23]: 0.0631 µM | GI50 (UACC-62 melanoma cells; [23]): 0.01 µM | GI50 (DLD-1 colon cancer cells; [23]): 7.94 µM | GI50 [12, 23]: 17.8 µM | GI50 [13, 23]: 0.0302 µM | GI50 (ACHN renal cancer cells): 51.3 µM | GI50 [14, 23]: 24 µM | GI50 [15, 23]: 53.7 µM | GI50 [16, 23]: 0.537 µM | GI50 [17, 23]: 42.7 µM | GI50 ([18]; Homo sapiens, KM-20L2, read-out: Log10 GI50 (converted)): 0.49 µM | GI50 (EKVX lung cancer cells): 55 µM | GI50 (SK-MEL-2 melanoma cells): 30.9 µM | GI50 (M-14 melanoma cells): 63.1 µM | GI50 (HT29 colon cancer cells; Homo sapiens, HT-29, read-out: Log10 GI50 (converted)): 24.5 µM | GI50 [19]: 55 µM | GI50 (SNB-75 CNS cancer cells): 31.6 µM | GI50 (SN12C renal cancer cells): 47.9 µM | GI50 [20, 23]: 16.6 µM | GI50 (TK-10 renal cancer cells): 0.525 µM | GI50 [5]: 0.0245 µM | GI50 [21, 23]: 32.4 µM | GI50 [22, 23]: 13.8 µM

OCc1ccc(-c2ccc(CO)s2)s1 [drawing 33]
Log10 GI50 [1]: -6.33 M | Log10 GI50 [6]: -4.46 M | Log10 GI50 (HOP-92 lung cancer cells): -4.09 M | Log10 GI50 (KM12 colon cancer cells): -4.35 M | Log10 GI50 [7]: -6.06 M | Log10 GI50 (UACC-257 melanoma cells): -6.00 M | Log10 GI50 [3]: -6.57 M | Log10 GI50 (A-498 renal cancer cells): -7.71 M | Log10 GI50 [8]: -6.22 M | Log10 GI50 [9]: -5.80 M | Log10 GI50 [4]: -6.63 M | Log10 GI50 [11]: -5.27 M | Log10 GI50 (UACC-62 melanoma cells): -6.36 M | Log10 GI50 (DLD-1 colon cancer cells): -4.74 M | Log10 GI50 (SNB-19 CNS cancer cells): -4.72 M | Log10 GI50 (HOP-18 lung cancer cells): -5.51 M | Log10 GI50 [12]: -6.40 M | Log10 GI50 [13]: -5.70 M | Log10 GI50 [14]: -4.19 M | Log10 GI50 [15]: -5.23 M | Log10 GI50 [16]: -5.04 M | Log10 GI50 [17]: -5.77 M | Log10 GI50 [18]: -6.15 M | Log10 GI50 (HOP-62 lung cancer cells): -5.52 M | Log10 GI50 (HT29 colon cancer cells): -5.04 M | Log10 GI50 [20]: -7.05 M | Log10 GI50 (TK-10 renal cancer cells): -6.29 M | Log10 GI50 [5]: -7.60 M | Log10 GI50 [21]: -5.91 M | Log10 GI50 [22]: -6.29 M
